Results on two molecules are retold here after patent publication US20220024980A1, “LIPO-GLYCOPEPTIDE CLEAVABLE DERIVATIVES AND USES THEREOF” (INSMED INCORPORATED, priority 2018, published 2022).

In brackets after ≈: the same amount, converted by molar mass.

The test system of this experiment is MRSA (USA300 ATCC BAA-1556). Description: Minimum inhibitory concentrations against MRSA by broth microdilution. It is filed as cell-based, Staphylococcus aureus. As to conditions: Mueller Hinton II broth with 0.002% (v/v) Polysorbate-, compound = scaffold with R′ and R″ (table column). On the procedure: Example 7—Minimum Inhibitory Concentrations Against MRSA Determined Using Broth Microdilution
In vitro activities were determined using CLSJ-guided broth susceptibility testing to measure drug minimum inhibitory concentrations (MICs) of compounds against MRSA (USA300 ATCC BAA-1556). The test medium used for the MIC assay was Mueller Hinton II broth made with 0.002% (v/v) Polysorbate-. Media was prepared fresh on the day of testing and stored according to guidelines from CLSJ.
Background: Dilution methods test growth across graded concentrations, often in twofold steps.

The molecule `CCCCCCCCCCCCNC(=O)CNC1(C)CC(OC2C(Oc3c4cc5cc3Oc3ccc(cc3Cl)C(O)C3NC(=O)C(NC(=O)C5NC(=O)C(CC(N)=O)NC(=O)C(NC(=O)C(CC(C)C)NC)C(O)c5ccc(c(Cl)c5)O4)c4ccc(O)c(c4)-c4c(O)cc(O)cc4C(C(=O)O)NC3=O)OC(CO)C(O)C2O)OC(C)C1O` (centres unmarked) [RV95 (R″ = H)] displayed an MIC of 0.031 µg/mL (≈ 0.0185 µM).
The molecule `CCCCCCCCCCCC(=O)NCCNC1(C)CC(OC2C(Oc3c4cc5cc3Oc3ccc(cc3Cl)C(O)C3NC(=O)C(NC(=O)C5NC(=O)C(CC(N)=O)NC(=O)C(NC(=O)C(CC(C)C)NC)C(O)c5ccc(c(Cl)c5)O4)c4ccc(O)c(c4)-c4c(O)cc(O)cc4C(C(=O)O)NC3=O)OC(CO)C(O)C2O)OC(C)C1O` (centres unmarked) [RV62 (R″ = H)] gave an MIC of 0.016 µg/mL (≈ 0.00955 µM).

What is called MIC is the lowest concentration found to suppress growth.
